Earlier results, collected in patent US5356784A, “Determination of concentration by affinity titration” (Terrapin Technologies, Inc., priority 1993, dated 1994).

Test system: Concanavalin A (ConA)
Settings: ConA with bacterial dextran from strain B-1355-5; materials described by Scott et al. PNAS 1992

Compound	inhibition of precipitation of ConA-dextran
CO[C@H]1O[C@H](CO)[C@@H](O)[C@H](O)[C@@H]1O [MeMan, methyl-alpha-Man]	inhibited in a dosedependent manner
MYWYPY: peptide identified by screening a phage epitope display library; inhibits Con A-dextran precipitation	inhibit
VGRAFS: peptide identified by screening a phage epitope display library; inhibits Con A-dextran precipitation	inhibit
